The assay deals with HUVEC. The assay is described as follows: HUVEC morphogenesis on MATRIGEL (in vitro angiogenesis, tubular length). The class given is cell-based, human. Particulars: 12-18 hours; SPM and C1P 1 μM. The protocol: FIG. 42 is microscope images showing morphogenesis of HUVEC cells plated on Matrigel. HUVEC cells were transduced with 50 MOI of indicated viruses; a,b=none, c=β-gal, d=wild-type EDG-1, e=T236AEDG-1, f=T236AEDG-1+wild-type Akt. Total viral load in c-f is normalized. In vitro angiogenesis assay on Matrigel was conducted in the presence (b to f) or not (a) of 100 nM S1P. The numbers are mean±s.e.m of total tubular length per microscopic field (n=2). Scale bar=170 μm.
To investigate SPP induction of angiogenesis, 200 μL aliquots of thawed MATRIGEL were polymerized in 24-well tissue culture plates. HUVEC were trypsinized, resuspended in plain M199 medium containing soybean trypsin inhibitor (10 mg/mL, Sigma Chemical Co., St. Louis, Mo.). Following centrifugation (250 g; 5 minutes), cells were resuspended in plain M199 supplemented with 2% CFBS at a density of 1.5×10^5 cells/mL. 200 μL of cell suspension were seeded on these gels in the presence or absence of SPP (Biomol), for 12-18 hours. Cells were rinsed two times with phosphate buffered saline (PBS), and then fixed with 4% formaldehyde. Results were recorded photographically using a Zeiss Axiovert 100TV microscope equipped with a 5× objective. Five random fields of each well were photographed, and total tubular length was quantified by image analysis (Kinsella, J. et al., Experimental Cell Research 199: 56-62 (1992); Gamble J., et al., J. Cell Biol. 121: 931-943 (1993)).
Scale bar represents 52 microns. These quantitative data are the mean±standard deviation of duplicate determinations from a representative experiment which was repeated at least three times. SPP concentrations (in μM) are indicated in parentheses. For SPP +PTx, HUVEC were pretreated with PTx (200 ng/mL) for 2 hours, trypsinized, plated onto MATRIGEL, then stimulated with 500 nM SPP in the presence of PTx (20 ng/mL) for 16-18 hours. For SPP+C3, HUVEC were pretreated with C3 exoenzyme (10 μg/mL) for 48 hours, trypsinized, plated onto MATRIGEL, stimulated with 500 nM SPP together with the same concentration of C3 exotoxin. SPM, sphingomyelin (1 μM). For C1P, C8-ceramide-1-phosphate (1 μM). The maximal effects achieved by 1 μM SPP was indistinguishable from the positive control medium which contained FBS.
In these experiments, HUVEC were plated onto MATRIGEL in the presence of the same amount of corresponding antibodies without or with 500 nM SPP. 16 hours later, total length of HUVEC networks formed on MATRIGEL was quantified.

Experimental findings from patent US20020142982A1, “Method for regulating angiogenesis” (priority 1999, published 2002) are described below.

Take `CCCCCCCCCCCCC/C=C/[C@@H](O)[C@@H](N)COP(=O)(O)O` [SPP, sphingosine-1-phosphate]: the “HUVEC morphogenesis on MATRIGEL (tubular length)” value is on record as “promoted HUVEC morphogenesis in a dose-dependent manner”.
